# Reference: patent US11951092B2, “Agent for preventing or treating brain atrophy” (FUJIFILM Toyama Chemical Co., Ltd., priority 2017, dated 2024)
# Legend:
# [1] = tested on: mild to moderate AD patients (brain volume: whole brain, hippocampus); assay: Test Example 2: Early Phase II placebo-controlled trial, brain volume change by volumetric MRI; format: in vivo, human
# Description: Multicenter Randomized Double-Blind Early Phase II Placebo-Controlled Trial for Assessing Effectiveness and Safety of Compound A in Mild to Moderate AD Patients
# Patients were screened in a period from 28 days before treatment assignment to the assignment based on the following selection criteria. Patients matched (373 patients) were randomly divided into the following 2 groups and the trial was started.
# Patients who were probable AD and over or 50 years old or older and 90 years old or younger at the time of obtaining consent of screening.
# Patients with an MMSE score of 15 to 24 at the time of screening
# (§1) Patients with a Modified Hachinski Ischemia Scale score of 4 or less
# Patients who have been treated with a donepezil hydrochloride for at least 6 months before the baseline and with a stable dose thereof for 3 months before the baseline.
# Patients whose brain MRI or CT results match AD at the time of screening Organization of groups:
# (1) Active drug group: 224 mg of a test compound (160 mg in terms of Compound A) was orally administered once a day for 52 weeks (176 patients)
# (2) Placebo group: placebo was orally administered once a day for 52 weeks (178 patients) Method of assessment:
# (§2) Brain volume of subjects was measured by vMRI scan at the screening and after 52 weeks, and the volume change of the whole brain and the hippocampus of the subjects were quantified to assess brain atrophy based on the change from the screening.
# The mean amount of volume change of the whole brain and the hippocampus after 52 weeks from the baseline, standard deviation and the difference from the placebo group were calculated.
# [2] = tested on: mild to moderate AD patients (brain volume: whole brain, hippocampus, 101 areas); assay: Test Example 1: Phase II placebo-controlled trial, brain volume change by volumetric MRI; format: in vivo, human; conditions: for Change in brain volume, Hippocampus, Least square means / Change in brain volume, Whole brain, Least square means / Change in brain volume, Hippocampus, Difference from placebo group / Change in brain volume, Whole brain, Difference from placebo group: vMRI at week 52 from baseline
# Description: Multicenter Randomized Double-Blind Phase II Placebo-Controlled Trial for Assessing Effectiveness and Safety of Compound A in Mild to Moderate AD Patients Subject (selection criteria): Patients were screened in a period from 42 days before treatment assignment to the assignment based on the following selection criteria.
# Patients who were probable AD and are 55 years old or older and 85 years old or younger at the time of obtaining consent of screening.
# Patients with an MMSE score of 12 to 22 at the time of screening
# as §1
# Patients who have been treated with a donepezil hydrochloride or rivastigmine transdermal system for at least 4 months before the baseline and with a stable dose thereof for 3 months before the baseline.
# In the case of patients who have received memantine in addition to being treated with a donepezil hydrochloride or rivastigmine transdermal system, patients who have been treated with memantine for at least 4 months before the baseline and with a stable dose thereof for 3 months before the baseline.
# Patients whose brain MRI or CT results match AD at the time of screening
# Organization of groups: Patients matched (484 patients) were randomly divided into the following 3 groups and the trial was started.
# (1) High dose group: 224 mg of a test compound (160 mg in terms of Compound A) was orally administered once a day for 4 weeks and then 448 mg of a test compound (320 mg in terms of Compound A) was orally administered once a day for 48 weeks (158 patients)
# (2) Low dose group: 224 mg of a test compound (160 mg in terms of Compound A) was orally administered once a day for 52 weeks (166 patients)
# (3) Placebo group: placebo was orally administered once a day for 52 weeks (158 patients)
# as §2
# Furthermore, volume change of the whole brain and 101 areas (obtained by dividing the areas existing in both the left brain and the right brain of the Brodmann areas (1 to 52) into 101 areas) in each subject was quantified to assess brain atrophy based on the change from the screening.
# Changes in the volume of the whole brain and the hippocampus after 52 weeks from the baseline were compared between the high dose group and the placebo group, and between the low dose group and the placebo group based on Mixed-effect Models. For models, the treatment groups were included as a fixed effect, age, baseline of the respective brain volumes (the whole brain or the hippocampus), baseline of MMSE and ApoE4 genotype (positive/negative) were included as covariates, and trial sites were included as a random effect.
# Furthermore, changes in the respective volumes of the whole brain and the 101 areas after 52 weeks from the baseline were compared between the high dose group and the placebo group, and between the low dose group and the placebo group.
# [3] = Compound A group vs placebo group, week 52 from baseline
# [4] = Low dose (active drug) group, 160 mg in terms of Compound A oral once a day, 52 weeks, vMRI at week 52 from baseline
# [5] = Low dose (active drug) group, vMRI at week 52 from baseline
# [6] = High dose group (160 mg for 4 weeks then 320 mg in terms of Compound A, oral once a day, 48 weeks)
# [7] = Low dose group (160 mg in terms of Compound A, oral once a day, 52 weeks)
compound,measurement,setting,value
"OC1CN(CCCOCCc2ccc3sccc3c2)C1 [Compound A, 1-(3-(2-(1-benzothiophen-5-yl)ethoxy)propyl)azetidin-3-ol]",Change in the volume of the whole brain and the hippocampus versus placebo group (in words),[1]; [3],volume reduction tended to be smaller
same,"Change in brain volume, Hippocampus, Mean change",[1]; [4],-0.21 mL
same,"Change in brain volume, Whole brain, Mean change",[1]; [4],-3.83 mL
same,"Change in brain volume, Hippocampus, Difference from placebo group",[1]; [5],0.09 mL
same,"Change in brain volume, Whole brain, Difference from placebo group",[1]; [5],3.41 mL
same,Change in the volume of the whole brain and the hippocampus versus placebo group (in words),[2]; [3],volume reduction tended to be smaller
same,Volume reduction of the whole brain and the hippocampus versus placebo group (in words),"[2]; Compound A high dose group, analysis of whole brain and 101 areas",same tendency as in the low dose group was observed
same,Volume reduction of the whole brain and the hippocampus versus placebo group (in words),"[2]; Compound A low dose group, analysis of whole brain and 101 areas (Nos. 6 and 14 in Table 2)",tended to be suppressed
same,"Change in brain volume, Hippocampus, Least square means",[2]; [6],-0.31 mL
same,"Change in brain volume, Whole brain, Least square means",[2]; [6],-20.05 mL
same,"Change in brain volume, Hippocampus, Difference from placebo group",[2]; High dose group,0.08 mL
same,"Change in brain volume, Whole brain, Difference from placebo group",[2]; High dose group,3.94 mL
same,"Change in brain volume, Hippocampus, Least square means",[2]; [7],-0.27 mL
same,"Change in brain volume, Whole brain, Least square means",[2]; [7],-21.37 mL
same,"Change in brain volume, Hippocampus, Difference from placebo group",[2]; Low dose group,0.12 mL
same,"Change in brain volume, Whole brain, Difference from placebo group",[2]; Low dose group,2.63 mL
same,"Change in brain volume, Mean value, Right-Cerebellum-White-Matter","[2]; Low dose group, week 52 from baseline, whole brain and 101 areas analysis",−0.89
